Tests used:
male Wistar rats [1] = assay: Subtotal nephrectomy (remnant kidney) model; type: in vivo, rat
Method: In the chronic disease models of subtotal nephrectomy and inflammation, the sodium salt of BAY 85-3934 was used. For administration in drinking water, BAY 85-3934 sodium and enalapril were prepared as 100 mM sodium bicarbonate saline solutions (adjusted to pH 7) at final concentrations of 80 ppm and 30 ppm, respectively. Sham and vehicle control animals received saline only. Unless otherwise stated, chemicals and reagents were purchased from Sigma-Aldrich.
Subtotal nephrectomy was conducted in adult male Wistar rats. Body weight, blood pressure, hematocrit, and blood cell counts were determined at baseline and thereafter at weekly intervals. At baseline, rats were randomly distributed into two groups: those that underwent subtotal nephrectomy and those that underwent a sham procedure without reduction of renal mass. Surgery was performed in deeply anesthetized (2% isoflurane in air) animals. Kidneys were accessed via a dorsolateral incision of the body wall of about 2 cm in length. The right kidney was removed after ligature of the renal peduncle, and subsequently the upper and lower pole of the left kidney were removed, followed by careful hemostasis. Approximately one third of the initial kidney mass remained (removed tissue was weighed to check this was achieved). In the sham-treated animals, both kidneys were exposed before closure of the wound. Three weeks after surgery, animals were allocated to each group in equal proportions with respect to systolic blood pressure and hematocrit values. For 5 weeks, animals were treated twice weekly with rhEPO (100 IU/kg), or once daily with […] (2.5 mg/kg or 5.0 mg/kg) or vehicle. In experiments using enalapril or a combination of BAY 85-3934 sodium and enalapril, study drugs were administered with drinking water. BAY 85-3934 sodium and enalapril were administered in drinking water at concentrations of 80 ppm and 30 ppm, respectively. This was equivalent to approximately 2 mg/kg/day for enalapril and 5 mg/kg/day for BAY 85-3934. Systolic blood pressure and heart rate were determined using the tail-cuff method (a semi-automatic, non-invasive blood pressure monitor; TSE Systems), with three repeated measurements per animal.
(§1) EPO was measured in plasma samples taken from rodents using a commercial ELISA kit (R&D Systems), according to the manufacturer’s instructions. Relative plasma EPO levels were given in picograms per milliliter. In cynomolgus monkeys, EPO was measured using a combination anti-human EPO ELISAs (R&D Systems and Roche Diagnostics), with human EPO as a standard. Values were given as units per liter. For determination of plasma prorenin from rats, a commercial ELISA (Oxford Biomedical Research) was used according to the manufacturer’s instructions. Hemoglobin in rodent blood samples was determined on a Cell-Dyn 3700 apparatus (Abbott Diagnostics). BAY 85-3934 plasma concentrations were determined after protein precipitation with acetonitrile/ammonium acetate using an internal standard, followed by separation using HPLC/mass spectrometry.
As well as anemia and inflammation, CKD is often accompanied by hypertension, upon which treatment with rhEPO may have an unfavorable impact. The effects of BAY 85-3934 were compared with rhEPO in the remnant kidney (subtotal nephrectomy) model in rats.

male Wistar rats [2] = assay: Comparison of oral BAY 85-3934 with rhEPO on erythropoiesis; type: in vivo, rat
Method: Male Wistar rats (240–340 g in body weight) were housed with five animals per cage for at least 1 week before experimentation. Blood samples from rats were collected under anesthesia (2% isoflurane in air) by puncturing the retro-orbital vein plexus with a glass capillary. In a repeat-dose, 26-day experiment, animals were administered vehicle or BAY 85-3934 at doses of 0.5 mg/kg, 1.25 mg/kg, 2.5 mg/kg, and 5 mg/kg. PCV was determined at baseline and at weekly intervals after centrifugation in a hematocrit capillary tube (Brand) for 10 min at full speed in a Haemofuge centrifuge (Heraeus). The number of reticulocytes in 5 µl blood was counted after staining with thiazol orange (Becton Dickinson) according to the manufacturer’s instructions by FACS analysis on a BD FACSCalibur system (Becton Dickinson). The efficacy of BAY 85-3934 (2.5 mg/kg, once-daily, oral) was also compared with that of rhEPO (25 IU/kg, 50 IU/kg, and 100 IU/kg, twice-weekly, s.c. injection). […] The efficacy of oral treatment with BAY 85-3934 was compared with that of standard rhEPO treatment in male Wistar rats.

cynomolgus monkeys [3] = assay: Comparison of BAY 85-3934 with rhEPO (single dose and 14-day repeat dose); type: in vivo, cynomolgus monkey
Method: (§2) Male and female cynomolgus monkeys (2.8–5.6 kg in body weight) were used, which were housed two per cage. Blood samples from conscious cynomolgus monkeys were taken by puncturing a superficial vein. In a 5-day, repeat-dose study of plasma EPO response, BAY 85-3934 was administered at doses of 0.5 mg/kg and 1.5 mg/kg at 0 h, 24 h, 48 h, 72 h, and 96 h. Blood samples were taken at 7 h, 31 h, 55 h, 79 h, 103 h, and 168 h. Erythropoietic parameters were also evaluated after a 2-week treatment period with s.c. administration of rhEPO (100 IU/kg twice weekly at days 1, 4, 8, and 11) and BAY 85-3934 (1.5 mg/kg) once daily.
as §1
In a further study, the efficacy of oral treatment with BAY 85-3934 was evaluated in comparison with rhEPO. Animals were administered a single dose of rhEPO (100 IU/kg) by s.c. injection or BAY 85-3934 (1.5 mg/kg, oral). After administration of rhEPO, plasma concentrations of rhEPO were more than 8-fold higher than the endogenous EPO levels induced by treatment with BAY 85-3934 (Fig. 3B). The area under the curve (AUC) of rhEPO was more than 6-fold higher than the AUC of endogenous EPO. […] Mean reticulocyte counts were 2-fold higher after treatment with rhEPO than after treatment with BAY 85-3934, but returned to baseline values 8 days after treatment cessation.

cynomolgus monkeys [4] = assay: 5-day repeat-dose study of plasma EPO response; type: in vivo, cynomolgus monkey
Method: as §2, §1
A multiple-dose study in cynomolgus monkeys was conducted to evaluate whether repeat administration of BAY 85-3934 would result in EPO accumulation and/or adaptation of the EPO response. […] In all groups, EPO concentrations had returned to baseline concentrations 24 h after administration of the study drug. […] Platelet and white blood cell counts were unchanged. With respect to EPO induction, the 0.5 mg/kg dose was determined as the minimal effective dose in this study, although statistical significance versus control animals was not reached in this small and heterogeneous animal cohort.

[5] = tested on: A549 cells stably transfected with the HIF-RE2-luc HIF reporter construct; assay: Luciferase reporter assay in A549 HIF-RE2 reporter cells; type: cell-based, human
Method: A549 and HeLa carcinoma cell lines (American Type Culture Collection) were cultured in DMEM/F-12 (Gibco), and Hep3B cells in RPMI medium, both supplemented with antibiotics, L-glutamine and 10% fetal calf serum. A549 cells stably transfected with the HIF-RE2-luc HIF reporter construct (constructed in pGL3, Promega GmbH) were seeded on 384-well plates (Greiner) at a density of 2500 cells/well in a volume of 25 µl complete cell culture medium, and re-incubated for 16–24 h before the test. Test compounds were added at appropriate dilutions in a volume of 10 µl, and cells were re-incubated for 6 h before measurement. Luciferase activity was determined in a luminometer after addition of cell lysis/luciferase buffer. Cell line identities were verified by STR DNA typing (DSMZ GmbH).
As in the enzymatic assay, and in contrast to experiments with iron-chelating agents (data not shown), luciferase activity was not altered by a high concentration of Fe^2+ (50 µM) in the culture medium (Fig. 1G). The high IC50 value observed corresponds well to the low sensitivity of A549 cells shown by western blot analysis.

Compound: O=c1c(-n2ccnn2)c[nH]n1-c1cc(N2CCOCC2)ncn1 [BAY 85-3934, 2-[6-(morpholin-4-yl)pyrimidin-4-yl]-4-(1H-1,2,3-triazol-1-yl)-1,2-dihydro-3H-pyrazol-3-one]
- mean systolic blood pressure (male Wistar rats [1]; 2.5 mg/kg group): almost normalized values
- systolic blood pressure versus control and rhEPO-treated animals (male Wistar rats [1]; 5 mg/kg): significantly lower
- mean PCV (male Wistar rats [1]; 5 mg/kg group, 2 weeks after onset of treatment): exceeded 50%
- systolic blood pressure compared with untreated controls (male Wistar rats [1]; 5 weeks, tail-cuff): sustained reduction
- mean PCV (male Wistar rats [1]; BAY 85-3934 2.5 and 5 mg/kg once daily, rhEPO 100 IU/kg twice weekly): significantly increased
- cardiac hypertrophy (male Wistar rats [1]; data not shown): complete prevention
- plasma prorenin after the decrease in blood pressure (male Wistar rats [1]; once daily oral, 5 weeks): not followed by the return of prorenin to normal levels
- equivalence of dose for gains in hematocrit and hemoglobin (male Wistar rats [2]; BAY 85-3934 2.5 mg/kg once daily): equivalent to a twice-weekly dose of rhEPO (100 IU/kg)
- hematocrit compared with the control group (male Wistar rats [2]; BAY 85-3934 2.5 mg/kg once daily oral, rhEPO 25, 50, 100 IU/kg twice weekly s.c., p<0.001 at day 30): significant increase
- mean gains of hemoglobin and red blood cells, both treatments compared (cynomolgus monkeys [3]; 14 days, rhEPO 100 IU/kg twice weekly s.c., BAY 85-3934 1.5 mg/kg once daily): almost completely congruent over time
- induced EPO peak concentrations, factor within the normal physiological range (cynomolgus monkeys [3]; chronic once-daily administration): approximately 2 fold
- plasma EPO 7 h after administration (cynomolgus monkeys [4]; 1.5 mg/kg oral, all animals): significantly induced
- time after administration at which EPO had returned to baseline (cynomolgus monkeys [4]; 0.5 and 1.5 mg/kg, all groups): 24 h
- adaptation of the EPO response after repeated dosing (cynomolgus monkeys [4]; once daily for 5 days): no adaptation
- platelet and white blood cell counts (cynomolgus monkeys [4]; once daily for 5 days): unchanged
- minimal effective dose for EPO induction (cynomolgus monkeys [4]; statistical significance versus control not reached): 0.5 mg/kg
- luciferase activity at high Fe2+ in the culture medium ([5]; Fe2+ 50 µM): not altered
- EC50 ([5]; Homo sapiens, A549, 6 h incubation, n = 4, read-out: mean (± SD) EC50 of luciferase reporter induction): 8.4 ± 0.7 µM

Source: article PMC4230943, “Mimicking Hypoxia to Treat Anemia: HIF-Stabilizer BAY 85-3934 (Molidustat) Stimulates Erythropoietin Production without Hypertensive Effects” (PLoS ONE, 2014)
